Measurements as given in ChEMBL document CHEMBL3870316, “Design, synthesis and structure-activity relationships of novel 4-phenoxyquinoline derivatives containing 1,2,4-triazolone moiety as c-Met kinase inhibitors” (Eur J Med Chem, 2016).

Legend:
[1] = Cytotoxicity against c-Met over-expressed human HT-29 cells assessed as cell growth inhibition after 72 hrs by MTT assay; settings: HT-29, 72 h
[2] = Cytotoxicity against c-Met over-expressed human H460 cells assessed as cell growth inhibition after 72 hrs by MTT assay; settings: NCI-H460, 72 h
[3] = Cytotoxicity against c-Met over-expressed human A549 cells assessed as cell growth inhibition after 72 hrs by MTT assay; settings: A549, 72 h
[4] = Cytotoxicity against c-Met over-expressed human MKN45 cells assessed as cell growth inhibition after 72 hrs by MTT assay; settings: MKN-45, 72 h
Homo sapiens = organism: Homo sapiens; experiment: Selectivity ratio of IC50 for VEGFR2 (unknown origin) to IC50 for c-MET (unknown origin)

Compound | IC50 [1] [µM] | IC50 [2] [µM] | IC50 [3] [µM] | IC50 [4] [µM] | Ratio IC50 (Homo sapiens)
COc1cc2c(Oc3ccc(NC(=O)c4nn(-c5c(C)cccc5C)c(=O)n4C)cc3F)ccnc2cc1OCCCN1CCC(C)CC1 | 2.68 | 3.22 | 4.55 | 2.23 | 
COc1cc2c(Oc3ccc(NC(=O)c4cn(-c5ccccc5Cl)nn4)cc3F)ccnc2cc1OCCCN1CCCCC1 |  |  |  |  | 53
COc1cc2c(Oc3ccc(NC(=O)c4nn(-c5ccccc5)c(=O)n4C)cc3F)ccnc2cc1OCCCN1CCOCC1 | 1.46 | 1.7 | 0.7 | 0.95 | 
COc1ccc(-n2nc(C(=O)Nc3ccc(Oc4ccnc5cc(OCCCN6CCN(C)CC6)c(OC)cc45)c(F)c3)n(C)c2=O)cc1 | 1.28 | 2.14 | 0.72 | 1.65 | 
COc1cc2c(Oc3ccc(NC(=O)c4nn(-c5ccc(F)cc5)c(=O)n4C)cc3F)ccnc2cc1OCCCN1CCC(C)CC1 | 0.33 | 0.24 | 0.41 | 0.31 | 
COc1cc2c(Oc3ccc(NC(=O)c4nn(-c5ccccc5)c(=O)n4C)cc3F)ccnc2cc1OCCCN1CCC(C)CC1 | 0.67 | 0.83 | 0.38 | 0.47 | 
COc1cc2c(Oc3ccc(NC(=O)c4nn(-c5ccccc5Cl)c(=O)n4C)cc3F)ccnc2cc1OCCCN1CCC(C)CC1 | 0.15 | 0.2 | 0.24 | 0.35 | 
COc1cc2c(Oc3ccc(NC(=O)c4nn(-c5ccc(OC(F)F)cc5)c(=O)n4C)cc3F)ccnc2cc1OCCCN1CCC(C)CC1 | 0.19 | 0.25 | 0.12 | 0.22 | 
CCn1c(C(=O)Nc2ccc(Oc3ccnc4cc(OCCCN5CCCCC5)c(OC)cc34)c(F)c2)nn(-c2ccccc2OC(F)(F)F)c1=O | 0.19 | 0.25 | 0.19 | 0.12 | 
COc1ccc(-n2nc(C(=O)Nc3ccc(Oc4ccnc5cc(OCCCN6CCC(C)CC6)c(OC)cc45)c(F)c3)n(C)c2=O)cc1 | 1.43 | 2.4 | 0.62 | 0.59 | 
COc1cc2c(Oc3ccc(NC(=O)c4nn(-c5ccc(F)cc5)c(=O)n4C)cc3F)ccnc2cc1OCCCN1CCN(C)CC1 | 0.25 | 0.37 | 0.24 | 0.35 | 
COc1cc2c(Oc3ccc(NC(=O)c4nn(-c5ccc(Cl)cc5Cl)c(=O)n4C)cc3F)ccnc2cc1OCCCN1CCN(C)CC1 | 0.3 | 0.24 | 0.25 | 0.18 | 
COc1cc2c(Oc3ccc(NC(=O)c4nn(-c5ccccc5Cl)c(=O)n4C4CC4)cc3F)ccnc2cc1OCCCN1CCC(C)CC1 | 0.14 | 0.16 | 0.2 | 0.11 | 
COc1cc2c(Oc3ccc(NC(=O)c4nn(-c5ccccc5Cl)c(=O)n4C)cc3F)ccnc2cc1OCCCN1CCN(C)CC1 | 0.17 | 0.34 | 0.16 | 0.088 | 
COc1cc2c(Oc3ccc(NC(=O)c4nn(-c5ccccc5Cl)c(=O)n4C4CC4)cc3F)ccnc2cc1OCCCN1CCN(C)CC1 | 0.19 | 0.23 | 0.13 | 0.063 | 
CCn1c(C(=O)Nc2ccc(Oc3ccnc4cc(OCCCN5CCN(C)CC5)c(OC)cc34)c(F)c2)nn(-c2ccccc2OC(F)(F)F)c1=O | 0.15 | 0.25 | 0.2 | 0.057 | 
COc1ccc(-n2nc(C(=O)Nc3ccc(Oc4ccnc5cc(OCCCN6CCCCC6)c(OC)cc45)c(F)c3)n(C)c2=O)cc1 | 3.12 | 2.84 | 0.96 | 0.88 | 
COc1cc2c(Oc3ccc(NC(=O)c4nn(-c5cccc(F)c5)c(=O)n4C)cc3F)ccnc2cc1OCCCN1CCN(C)CC1 | 0.29 | 0.31 | 0.28 | 0.41 | 
COc1cc2c(Oc3ccc(NC(=O)c4nn(-c5ccccc5)c(=O)n4C)cc3F)ccnc2cc1OCCCN1CCN(C)CC1 | 0.65 | 0.62 | 0.46 | 0.56 | 
COc1cc2c(Oc3ccc(NC(=O)c4nn(-c5ccccc5OC(F)(F)F)c(=O)n4C)cc3F)ccnc2cc1OCCCN1CCCCC1 | 0.21 | 0.29 | 0.13 | 0.08 | 
COc1cc2c(Oc3ccc(NC(=O)c4nn(-c5cccc(F)c5)c(=O)n4C)cc3F)ccnc2cc1OCCCN1CCC(C)CC1 | 0.4 | 0.29 | 0.44 | 0.2 | 

Compound | IC50 [1] [µM] | IC50 [2] [µM] | IC50 [3] [µM] | IC50 [4] [µM] | Ratio IC50 (Homo sapiens)
COc1cc2c(Oc3ccc(NC(=O)c4nn(-c5ccccc5)c(=O)n4C)cc3F)ccnc2cc1OCCCN1CCCC1 | 1.45 | 1.3 | 0.99 | 1.16 | 
COc1cc2c(Oc3ccc(NC(=O)c4nn(-c5cccc(F)c5)c(=O)n4C)cc3F)ccnc2cc1OCCCN1CCCCC1 | 0.43 | 0.35 | 0.38 | 0.33 | 
COc1cc2c(Oc3ccc(NC(=O)c4nn(-c5ccc(Cl)cc5Cl)c(=O)n4C)cc3F)ccnc2cc1OCCCN1CCC(C)CC1 | 0.18 | 0.45 | 0.35 | 0.4 | 
COc1cc2c(Oc3ccc(NC(=O)c4nn(-c5ccccc5F)c(=O)n4C)cc3F)ccnc2cc1OCCCN1CCC(C)CC1 | 0.11 | 0.25 | 0.12 | 0.19 | 
COc1cc2c(Oc3ccc(NC(=O)c4nn(-c5ccccc5OC(F)(F)F)c(=O)n4C4CC4)cc3F)ccnc2cc1OCCCN1CCN(C)CC1 | 0.09 | 0.18 | 0.11 | 0.061 | 
COc1cc2c(Oc3ccc(NC(=O)c4nn(-c5ccccc5F)c(=O)n4C)cc3F)ccnc2cc1OCCCN1CCCCC1 | 0.16 | 0.26 | 0.22 | 0.07 | 
COc1cc2c(Oc3ccc(NC(=O)c4nn(-c5ccccc5)c(=O)n4C)cc3F)ccnc2cc1OCCCN1CCCCC1 | 0.87 | 0.78 | 0.45 | 0.46 | 
COc1cc2c(Oc3ccc(NC(=O)c4nn(-c5ccc(OC(F)F)cc5)c(=O)n4C)cc3F)ccnc2cc1OCCCN1CCN(C)CC1 | 0.22 | 0.29 | 0.29 | 0.14 | 
COc1cc2c(Oc3ccc(N/C=C4\C(=O)N(c5ccccc5C(F)(F)F)N=C4C)cc3F)ccnc2cc1OCCCN1CCOCC1 |  |  |  |  | 172
COc1cc2c(Oc3ccc(NC(=O)c4nn(-c5ccc(Cl)cc5Cl)c(=O)n4C)cc3F)ccnc2cc1OCCCN1CCCCC1 | 0.34 | 0.38 | 0.32 | 0.29 | 
COc1cc2c(Oc3ccc(NC(=O)c4nn(-c5ccccc5OC(F)(F)F)c(=O)n4C4CC4)cc3F)ccnc2cc1OCCCN1CCC(C)CC1 | 0.11 | 0.24 | 0.12 | 0.1 | 
COc1cc2c(Oc3ccc(NC(=O)c4nn(-c5c(C)cccc5C)c(=O)n4C)cc3F)ccnc2cc1OCCCN1CCN(C)CC1 | 1.26 | 2.4 | 0.98 | 1.66 | 
COc1cc2c(Oc3ccc(NC(=O)c4nn(-c5ccccc5Cl)c(=O)n4C)cc3F)ccnc2cc1OCCCN1CCCCC1 | 0.18 | 0.3 | 0.19 | 0.22 | 
COc1cc2c(Oc3ccc(NC(=O)c4nn(-c5ccc(OC(F)F)cc5)c(=O)n4C)cc3F)ccnc2cc1OCCCN1CCCCC1 | 0.28 | 0.31 | 0.22 | 0.13 | 
COc1cc2c(Oc3ccc(NC(=O)c4nn(-c5ccccc5OC(F)(F)F)c(=O)n4C)cc3F)ccnc2cc1OCCCN1CCN(C)CC1 | 0.18 | 0.2 | 0.09 | 0.02 | 
COc1cc2c(Oc3ccc(NC(=O)c4nn(-c5ccccc5OC(F)(F)F)c(=O)n4C)cc3F)ccnc2cc1OCCCN1CCC(C)CC1 | 0.19 | 0.35 | 0.18 | 0.095 | 
COc1cc2c(Oc3ccc(NC(=O)c4nn(-c5ccc(F)cc5)c(=O)n4C)cc3F)ccnc2cc1OCCCN1CCCCC1 | 0.4 | 0.58 | 0.35 | 0.4 | 
CCn1c(C(=O)Nc2ccc(Oc3ccnc4cc(OCCCN5CCC(C)CC5)c(OC)cc34)c(F)c2)nn(-c2ccccc2OC(F)(F)F)c1=O | 0.16 | 0.2 | 0.22 | 0.087 | 
COc1cc2c(Oc3ccc(NC(=O)c4nn(-c5ccc(F)cc5)c(=O)n4C)cc3F)ccnc2cc1OCCCN1CCCC1 | 0.97 | 0.73 | 0.68 | 0.76 | 
COc1cc2c(Oc3ccc(NC(=O)c4nn(-c5c(C)cccc5C)c(=O)n4C)cc3F)ccnc2cc1OCCCN1CCCCC1 | 1.7 | 3.01 | 2 | 1.85 | 
COc1cc2c(Oc3ccc(NC(=O)c4nn(-c5ccc(F)cc5)c(=O)n4C)cc3F)ccnc2cc1OCCCN1CCOCC1 | 1.23 | 0.81 | 0.4 | 0.64 | 
